Activity calls are given as the source filed them. The rule behind the calls is not given here. Where a SMILES comes first, the peptide text is derived from it. [ ]: non-standard residue; d: D form. NMeV = CN[C@H](C(=O)O)C(C)C; NMeS = CN[C@@H](CO)C(=O)O; hSer = N[C@@H](CCO)C(=O)O; Abu = CC[C@H](N)C(=O)O; Aib = CC(C)(N)C(=O)O
What was measured:
[1] = target: T1, Disks large homolog 4 (Homo sapiens, UniProt P78352); experiment: Binding affinity to human PSD95 domain PDZ2 expressed in Escherichia coli BL21-DE3 by fluorescence polarization assay
Target sequence in this assay (P78352 whole entry, the tested form may be a part): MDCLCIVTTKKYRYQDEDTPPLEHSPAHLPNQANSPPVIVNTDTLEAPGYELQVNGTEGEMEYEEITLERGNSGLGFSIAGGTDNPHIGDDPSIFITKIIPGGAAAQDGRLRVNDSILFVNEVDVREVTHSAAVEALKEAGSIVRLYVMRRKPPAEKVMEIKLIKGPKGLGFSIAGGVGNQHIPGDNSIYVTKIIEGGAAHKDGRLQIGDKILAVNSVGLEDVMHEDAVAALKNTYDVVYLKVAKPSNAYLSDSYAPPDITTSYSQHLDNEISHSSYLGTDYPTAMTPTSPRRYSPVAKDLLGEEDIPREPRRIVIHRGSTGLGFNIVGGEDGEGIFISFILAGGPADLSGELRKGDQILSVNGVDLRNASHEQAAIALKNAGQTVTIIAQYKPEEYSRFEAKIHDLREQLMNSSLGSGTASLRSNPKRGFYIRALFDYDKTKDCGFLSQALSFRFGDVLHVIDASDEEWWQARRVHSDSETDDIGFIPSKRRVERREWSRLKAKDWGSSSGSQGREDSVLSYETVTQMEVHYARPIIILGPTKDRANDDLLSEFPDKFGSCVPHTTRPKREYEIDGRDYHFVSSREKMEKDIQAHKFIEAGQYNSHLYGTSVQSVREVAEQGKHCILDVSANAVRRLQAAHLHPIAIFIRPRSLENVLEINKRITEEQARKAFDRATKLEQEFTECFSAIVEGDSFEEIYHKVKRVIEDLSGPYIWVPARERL

[2] = target: T1, Disks large homolog 4; experiment: Binding affinity to human PSD95 domain PDZ1 expressed in Escherichia coli BL21-DE3 by fluorescence polarization assay
Target sequence in this assay (P78352 whole entry, looked up, the tested form may be a part): as the sequence (P78352 whole entry, the tested form may be a part) above

[3] = target: T1, Disks large homolog 4; experiment: Binding affinity to human PSD95 domain PDZ2 expressed in Escherichia coli BL21-DE3 by fluorescence polarization assay
Target sequence in this assay (P78352 whole entry, looked up, the tested form may be a part): as the sequence (P78352 whole entry, the tested form may be a part) above

[4] = target: T1, Disks large homolog 4; experiment: Binding affinity to human PSD95 domain PDZ3 expressed in Escherichia coli BL21-DE3 by fluorescence polarization assay
[5] = target: T1, Disks large homolog 4; experiment: Binding affinity to human PSD95 domain PDZ1 expressed in Escherichia coli BL21-DE3 by fluorescence polarization assay
Target sequence in this assay (P78352 whole entry, the tested form may be a part): as above

Activity [2]	Activity [3]	Molecule	also measured
–	–	CC(C)[C@H](NC(=O)[C@H](C)NC(=O)[C@@H](NC(=O)[C@H](CCC(=O)O)NCCCc1ccc(F)c(F)c1)[C@@H](C)O)C(=O)O	Ki [1]: 1000 nM
inactive	inactive	CC(C)(NC(=O)[C@H](CC(=O)O)NC(=O)[C@H](CO)NC(=O)[C@@H](N)CCC(=O)O)C(=O)O (H-ESD[Aib]-OH)	–
inactive	inactive	CC(C)[C@H](NC(=O)[C@H](CC(=O)O)NC(=O)[C@H](CO)N(C)C(=O)[C@@H](N)CCC(=O)O)C(=O)O (H-E[NMeS]DV-OH)	–
–	–	CC(C)[C@H](NC(=O)[C@H](C)NC(=O)[C@@H](NC(=O)[C@H](CCC(=O)O)NCCC1CCCCC1)[C@@H](C)O)C(=O)O	Ki [4]: 11000 nM
–	–	CC(C)[C@H](NC(=O)[C@H](C)NC(=O)[C@@H](NC(=O)[C@H](CCC(=O)O)NCC1CCCCC1)[C@@H](C)O)C(=O)O	Ki [5]: 1000 nM
–	–	CC[C@H](C)[C@H](NC(=O)[C@H](CO)NC(=O)[C@H](CO)NC(=O)[C@H](CC(C)C)NC(=O)[C@H](CCCCN)NC(=O)[C@H](CCCNC(=N)N)NC(=O)[C@H](CCCNC(=N)N)NC(=O)[C@H](CCCNC(=N)N)NC(=O)[C@H](CCC(N)=O)NC(=O)[C@H](CCCNC(=N)N)NC(=O)[C@H](CCCNC(=N)N)NC(=O)[C@H](CCCCN)NC(=O)[C@H](CCCCN)NC(=O)[C@H](CCCNC(=N)N)NC(=O)CNC(=O)[C@@H](N)Cc1ccc(O)cc1)C(=O)N[C@@H](CCC(=O)O)C(=O)N[C@@H](CO)C(=O)N[C@@H](CC(=O)O)C(=O)N[C@H](C(=O)O)C(C)C	Activity [4]: inactive
inactive	inactive	CC(C)[C@@H](C(=O)O)N(C)C(=O)[C@H](CC(=O)O)NC(=O)[C@H](CO)NC(=O)[C@@H](N)CCC(=O)O (H-ESD[NMeV]-OH)	–
–	–	CC(C)[C@H](NC(=O)[C@H](C)NC(=O)[C@@H](NC(=O)[C@H](CCC(=O)O)NCCc1ccc2ccccc2c1)[C@@H](C)O)C(=O)O	Ki [5]: 1000 nM
–	–	H-KSGYEKLSSIESDV-OH	Activity [4]: inactive
–	inactive	CC[C@H](NC(=O)[C@H](CC(=O)O)NC(=O)[C@H](CO)NC(=O)[C@@H](N)CCC(=O)O)C(=O)O (H-ESD[Abu]-OH)	–
inactive	inactive	CC(C)[C@H](NC(=O)[C@H](CC(=O)O)NC(=O)[C@@H](NC(=O)[C@@H](N)CCC(=O)O)C(C)(C)CO)C(=O)O	–
inactive	inactive	CC(C)[C@H](NC(=O)[C@H](CC(=O)O)NC(=O)[C@@H](NC(=O)[C@@H](N)CCC(=O)O)[C@H](C)CO)C(=O)O	–
inactive	inactive	CC(C)[C@H](NC(=O)[C@H](CC(=O)O)NC(=O)[C@H](CCO)NC(=O)[C@@H](N)CCC(=O)O)C(=O)O (H-E[hSer]DV-OH)	–
–	–	CN[C@@H](CCC(=O)O)C(=O)N[C@H](C(=O)N[C@@H](C)C(=O)N[C@H](C(=O)O)C(C)C)[C@@H](C)O	Ki [5]: 11000 nM
